Measurements reported in US20190352288A1, “MATRIX METALLOPROTEINASE (MMP) INHIBITORS AND METHODS OF USE THEREOF” (Foresee Pharmaceuticals Co., Ltd., priority 2018, published 2019).

Legend:
Format in all cases: biochemical
[1] = target: T1, recombinant human MMP-12 catalytic domain (Homo sapiens, UniProt P39900); experiment: MMP-12 inhibitory assay (fluorogenic substrate cleavage); settings: readout at 30 minutes, 37° C., Table 1
T1 construct: recombinant human MMP-12 catalytic domain; purchased Enzo BML-SE138
T1 sequence (P39900 106-268 limits assumed): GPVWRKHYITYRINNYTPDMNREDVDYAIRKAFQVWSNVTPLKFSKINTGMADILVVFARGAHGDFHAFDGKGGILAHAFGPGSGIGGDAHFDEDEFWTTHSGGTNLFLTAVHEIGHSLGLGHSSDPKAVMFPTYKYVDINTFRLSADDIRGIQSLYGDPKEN
Description: (§1) The inhibitory effect of compounds on the rate of cleaving fluorogenic MMP substrate (Enzo, BML-P128) by recombinant human MMP-12 catalytic domain (Enzo, BML-SE138) was carried out by methods known in the art. Briefly, to each well of a 96-well black opaque plate, all the reagents were sequentially added by pipetting, and the final reaction contained 4 nM of recombinant human MMP-12 catalytic domain, 4 μM of fluorogenic MMP substrate, and various concentrations (0.15 nM to 10,000 nM) of tested compound dilutions in HEPES buffer (pH 7.5) containing 10 mM of CaCl2), 0.01% Brij® 35 (polyoxyethylene (23) lauryl ether), and 0.1 mg/ml of BSA.
(§2) The enzyme and compounds were pre-incubated on a shaker to mix in wells. After an hour of mixing, fluorogenic substrate was added to each well. Reaction without enzyme was used as a blank control in the plate. The plate was then fed into a plate reader to measure fluorescence intensity at Excitation/Emission wavelengths of 340 nm/440 nm every 10 mins for at least 1 hour at 37° C. The IC50 of each compound in MMP-12 inhibition was determined by using a readout obtained at time point 30 minutes.

recombinant human MMP-2 = target: T2, recombinant human MMP-2 (Homo sapiens, UniProt P08253); experiment: MMP selectivity assay, MMP-2; settings: Table 2 selectivity profile
T2 sequence (P08253 110-660): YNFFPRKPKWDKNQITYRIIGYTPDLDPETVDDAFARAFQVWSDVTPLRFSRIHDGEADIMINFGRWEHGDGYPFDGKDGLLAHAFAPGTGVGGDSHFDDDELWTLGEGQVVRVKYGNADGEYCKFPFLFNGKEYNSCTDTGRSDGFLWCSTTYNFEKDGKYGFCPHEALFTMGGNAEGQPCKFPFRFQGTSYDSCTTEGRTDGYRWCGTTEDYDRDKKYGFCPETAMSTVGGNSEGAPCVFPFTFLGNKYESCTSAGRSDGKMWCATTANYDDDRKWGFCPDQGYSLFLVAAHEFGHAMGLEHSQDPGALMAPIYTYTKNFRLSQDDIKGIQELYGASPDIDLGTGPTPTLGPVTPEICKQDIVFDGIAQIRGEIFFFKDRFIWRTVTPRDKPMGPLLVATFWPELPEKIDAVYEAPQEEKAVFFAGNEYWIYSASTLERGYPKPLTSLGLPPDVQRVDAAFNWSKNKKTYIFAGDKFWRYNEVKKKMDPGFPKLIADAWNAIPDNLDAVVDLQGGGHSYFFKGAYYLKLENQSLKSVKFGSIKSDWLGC
Description: as §1, §2
(§3) The MMP selectivity assay was performed by using other recombinant human MMPs, including MMP-1, MMP-2, MMP-3, MMP-7, MMP-8, MMP-9, MMP-10, MMP-13, and MMP-14. The IC50 of the compounds for the other recombinant human MMPs was determined as described above in Example 1, and are shown in Table 2.

recombinant human MMP-7 = target: T3, recombinant human MMP-7 (Homo sapiens, UniProt P09237); experiment: MMP selectivity assay, MMP-7; settings: Table 2 selectivity profile
T3 sequence (P09237 95-267): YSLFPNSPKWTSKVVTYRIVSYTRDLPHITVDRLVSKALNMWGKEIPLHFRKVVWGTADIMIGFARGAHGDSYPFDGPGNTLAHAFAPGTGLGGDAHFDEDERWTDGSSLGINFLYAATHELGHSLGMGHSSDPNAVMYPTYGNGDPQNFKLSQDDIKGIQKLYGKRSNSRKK
Description: as §1, §2, §3

recombinant human MMP-10 = recombinant human MMP-10 (Homo sapiens, UniProt P09238); experiment: MMP selectivity assay, MMP-10; settings: Table 2 selectivity profile
Chain of recombinant human MMP-10 (P09238 99-476): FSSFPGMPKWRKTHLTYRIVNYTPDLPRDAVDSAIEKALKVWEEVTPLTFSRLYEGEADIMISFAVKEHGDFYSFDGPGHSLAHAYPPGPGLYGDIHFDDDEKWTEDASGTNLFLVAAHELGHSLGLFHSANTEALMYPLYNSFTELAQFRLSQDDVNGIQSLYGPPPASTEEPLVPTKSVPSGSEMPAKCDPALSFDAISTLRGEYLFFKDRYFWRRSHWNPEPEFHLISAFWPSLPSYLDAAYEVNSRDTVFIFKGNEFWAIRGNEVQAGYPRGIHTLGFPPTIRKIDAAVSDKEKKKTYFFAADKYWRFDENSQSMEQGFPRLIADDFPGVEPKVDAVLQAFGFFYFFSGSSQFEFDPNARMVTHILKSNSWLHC
Description: as §1, §2, §3

recombinant human MMP-3 = recombinant human MMP-3 (Homo sapiens, UniProt P08254); experiment: MMP selectivity assay, MMP-3; settings: Table 2 selectivity profile
Chain of recombinant human MMP-3 (P08254 100-477): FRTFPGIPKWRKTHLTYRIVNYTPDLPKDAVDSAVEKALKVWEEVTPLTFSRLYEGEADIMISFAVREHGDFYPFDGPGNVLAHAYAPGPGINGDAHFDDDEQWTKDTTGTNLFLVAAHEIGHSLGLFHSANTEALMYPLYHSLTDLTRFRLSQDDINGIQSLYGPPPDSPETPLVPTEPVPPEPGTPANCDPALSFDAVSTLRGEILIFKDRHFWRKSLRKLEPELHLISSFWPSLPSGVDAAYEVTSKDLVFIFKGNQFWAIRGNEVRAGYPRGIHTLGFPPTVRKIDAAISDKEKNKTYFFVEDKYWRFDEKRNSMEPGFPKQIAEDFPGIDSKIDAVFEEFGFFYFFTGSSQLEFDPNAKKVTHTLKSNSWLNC
Description: as §1, §2, §3

recombinant human MMP-8 = recombinant human MMP-8 (Homo sapiens, UniProt P22894); experiment: MMP selectivity assay, MMP-8; settings: Table 2 selectivity profile
Chain of recombinant human MMP-8 (P22894 101-467): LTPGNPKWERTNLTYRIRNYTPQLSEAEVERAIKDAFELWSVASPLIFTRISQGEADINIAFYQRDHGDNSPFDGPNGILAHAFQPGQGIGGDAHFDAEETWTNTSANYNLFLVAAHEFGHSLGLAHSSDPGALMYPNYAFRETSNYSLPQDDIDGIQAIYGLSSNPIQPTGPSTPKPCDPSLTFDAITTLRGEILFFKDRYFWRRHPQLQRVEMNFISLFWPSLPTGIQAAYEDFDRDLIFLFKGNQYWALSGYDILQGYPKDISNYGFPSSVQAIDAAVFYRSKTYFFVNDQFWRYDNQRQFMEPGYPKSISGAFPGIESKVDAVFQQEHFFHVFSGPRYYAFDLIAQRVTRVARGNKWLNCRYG
Description: as §1, §2, §3

recombinant human MMP-13 = recombinant human MMP-13 (Homo sapiens, UniProt P45452); experiment: MMP selectivity assay, MMP-13; settings: Table 2 selectivity profile
Description: as §1, §2, §3

recombinant human MMP-1 = target: T4, recombinant human MMP-1 (Homo sapiens, UniProt P03956); experiment: MMP selectivity assay, MMP-1; settings: Table 2 selectivity profile
T4 sequence (P03956 100-469): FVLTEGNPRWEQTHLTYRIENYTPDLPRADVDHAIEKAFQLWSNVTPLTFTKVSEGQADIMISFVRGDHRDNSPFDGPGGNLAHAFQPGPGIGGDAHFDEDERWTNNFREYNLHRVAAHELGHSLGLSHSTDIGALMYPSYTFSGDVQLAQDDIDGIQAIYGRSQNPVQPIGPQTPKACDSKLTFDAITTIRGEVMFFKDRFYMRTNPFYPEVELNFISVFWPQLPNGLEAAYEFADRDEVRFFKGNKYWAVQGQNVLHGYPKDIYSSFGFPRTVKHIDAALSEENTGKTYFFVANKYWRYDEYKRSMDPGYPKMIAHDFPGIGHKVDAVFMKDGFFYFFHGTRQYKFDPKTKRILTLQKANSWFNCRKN
Description: as §1, §2, §3

recombinant human MMP-9 = recombinant human MMP-9 (Homo sapiens, UniProt P14780); experiment: MMP selectivity assay, MMP-9; settings: Table 2 selectivity profile
Chain of recombinant human MMP-9 (P14780 94-707): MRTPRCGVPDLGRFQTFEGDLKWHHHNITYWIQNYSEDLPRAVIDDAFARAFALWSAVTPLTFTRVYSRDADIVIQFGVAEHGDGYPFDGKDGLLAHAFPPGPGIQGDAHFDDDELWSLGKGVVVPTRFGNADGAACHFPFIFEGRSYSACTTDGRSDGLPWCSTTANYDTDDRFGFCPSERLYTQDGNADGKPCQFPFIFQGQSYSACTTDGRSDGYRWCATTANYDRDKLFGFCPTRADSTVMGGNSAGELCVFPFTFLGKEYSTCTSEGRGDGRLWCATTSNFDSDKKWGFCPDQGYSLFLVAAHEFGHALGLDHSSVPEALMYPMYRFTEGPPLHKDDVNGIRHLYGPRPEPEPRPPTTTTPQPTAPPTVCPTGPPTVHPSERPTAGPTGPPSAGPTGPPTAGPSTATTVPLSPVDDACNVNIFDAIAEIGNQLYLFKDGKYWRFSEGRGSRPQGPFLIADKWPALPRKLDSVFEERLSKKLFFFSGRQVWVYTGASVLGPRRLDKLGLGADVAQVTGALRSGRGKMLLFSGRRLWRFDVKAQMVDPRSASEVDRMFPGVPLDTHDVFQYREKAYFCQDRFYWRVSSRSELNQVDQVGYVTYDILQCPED
Description: as §1, §2, §3

recombinant human MMP-14 = recombinant human MMP-14 (Homo sapiens, UniProt P50281); experiment: MMP selectivity assay, MMP-14; settings: Table 2 selectivity profile
Description: as §1, §2, §3

Work on Cc1cccc(COc2ccc(Sc3ncoc3C3NC(=O)NC3=O)cc2)c1 (stereo not drawn) [OC-10] yielded an IC50 [1] of 10 to 100 nM.
Compound Cc1cc(COc2ccc(Sc3ccncc3C3NC(=O)NC3=O)cn2)ccn1 (stereo not drawn) [PC-61] has an IC50 [1] of 100 to 1000 nM.
Work on O=C1NC(=O)C(c2ccncc2Sc2ccc(OCc3cccc(CO)c3)cc2)N1 (stereo not drawn) [PC-13] yielded an IC50 (recombinant human MMP-2) of 1000 to 10000 nM, an IC50 (recombinant human MMP-7) of over 10000 nM and an IC50 (recombinant human MMP-10) of 1000 to 10000 nM. It also gave an IC50 (recombinant human MMP-3) of 100 to 1000 nM, an IC50 (recombinant human MMP-8) of 1000 to 10000 nM and an IC50 (recombinant human MMP-13) of 1000 to 10000 nM. The IC50 (recombinant human MMP-1) was over 10000 nM, the IC50 (recombinant human MMP-9) was 1000 to 10000 nM and the IC50 (recombinant human MMP-14) was over 10000 nM.
For O=C1NC(=O)C(c2ccncc2Sc2ccc(OCc3ccc(CO)cc3)cc2)N1 (stereo not drawn) [PC-14], the IC50 [1] was 10 to 100 nM.
O=C1NC(=O)C(c2sccc2Sc2ccc(OCc3cccc(CO)c3)cc2)N1 (stereo not drawn) [TC4] was tested, and the IC50 (recombinant human MMP-2) was 1000 to 10000 nM, the IC50 (recombinant human MMP-7) was over 10000 nM and the IC50 (recombinant human MMP-10) was 1000 to 10000 nM. The IC50 (recombinant human MMP-3) was 100 to 1000 nM, the IC50 (recombinant human MMP-8) was 100 to 1000 nM and the IC50 (recombinant human MMP-13) was 1000 to 10000 nM. The IC50 (recombinant human MMP-1) was over 10000 nM, the IC50 (recombinant human MMP-9) was 1000 to 10000 nM and the IC50 (recombinant human MMP-14) was 1000 to 10000 nM.
For CCOc1cc(COc2ccc(Sc3ccncc3C3NC(=O)NC3=O)cc2)ccn1 (stereo not drawn) [PC-31], the IC50 [1] was 10 to 100 nM.
In the case of NC(=O)c1cc(COc2ccc(Sc3ccncc3C3NC(=O)NC3=O)cc2)ccn1 (stereo not drawn) [PC-60], the IC50 [1] is reported as 10 to 100 nM.
For Cc1cc(CN(C)c2ccc(Sc3ccncc3C3NC(=O)NC3=O)cc2)ccn1 (stereo not drawn) [PC-58], the IC50 [1] was 10 to 100 nM.
Cc1cc(COc2ccc(Sc3ncn(C)c3C3NC(=O)NC3=O)cc2)ccn1 (stereo not drawn) [OC-13] was tested, and the IC50 (recombinant human MMP-2) was 100 to 1000 nM, the IC50 (recombinant human MMP-7) was over 10000 nM and the IC50 (recombinant human MMP-10) was 1000 to 10000 nM. The IC50 (recombinant human MMP-3) was 1000 to 10000 nM, the IC50 (recombinant human MMP-8) was 100 to 1000 nM and the IC50 (recombinant human MMP-13) was 100 to 1000 nM. The IC50 (recombinant human MMP-1) was over 10000 nM, the IC50 (recombinant human MMP-9) was 1000 to 10000 nM and the IC50 (recombinant human MMP-14) was 100 to 1000 nM.
Compound O=C1NC(=O)C(c2ccncc2Sc2ccc(OCc3ccnc(CO)c3)cc2)N1 (stereo not drawn) [PC-53] has an IC50 [1] of 10 to 100 nM.
With CC(C)COc1cc(COc2ccc(Sc3ccncc3C3NC(=O)NC3=O)cc2)ccn1 (stereo not drawn) [PC-33] the IC50 [1] was 100 to 1000 nM.
Work on CCCOc1cccc(COc2ccc(Sc3ccsc3C3NC(=O)NC3=O)cc2)c1 (stereo not drawn) [TC1] yielded an IC50 [1] of 100 to 1000 nM.
Cc1cc(COc2ccc(Sc3cc(C)ncc3C3NC(=O)NC3=O)cc2)ccn1 (stereo not drawn) [PC-45] was tested, and the IC50 [1] was 10 to 100 nM.
In the case of CC(C)Oc1cc(COc2ccc(Sc3ccncc3C3NC(=O)NC3=O)cc2)ccn1 (stereo not drawn) [PC-32], the IC50 [1] is reported as 10 to 100 nM.
With Cc1cc(COc2ccc(Sc3ccncc3C3NC(=O)NC3=O)cc2F)ccn1 (stereo not drawn) [PC-52] the IC50 [1] was 10 to 100 nM.
Compound Cc1cc(CCc2ccc(Sc3ccncc3C3NC(=O)NC3=O)cc2)ccn1 (stereo not drawn) [PC-57] has an IC50 [1] of 10 to 100 nM.
Cc1cc(CNc2ccc(Sc3ccncc3C3NC(=O)NC3=O)cc2)ccn1 (stereo not drawn) [PC-56] showed an IC50 [1] of 10 to 100 nM.
Work on O=C1NC(=O)C(c2cnccc2Oc2ccc(OCc3cccc(CO)c3)cc2)N1 (stereo not drawn) [PC-25] yielded an IC50 [1] of 10 to 100 nM.
In the case of Cc1cccc(COc2ccc(Sc3cc[n+](O)cc3C3NC(=O)NC3=O)cc2)c1 (stereo not drawn) [OC-3], the IC50 [1] is reported as 10 to 100 nM.
Cc1cc(COc2ccc(Oc3ccncc3C3NC(=O)NC3=O)cc2)ccn1 (stereo not drawn) [PC-27] gave an IC50 [1] of 10 to 100 nM.
With Cc1cccc(COc2ccc(S(=O)(=O)c3cc[n+](O)cc3C3NC(=O)NC3=O)cc2)c1 (stereo not drawn) [OC-4] the IC50 [1] was over 1000 nM.
In the case of O=C1NC(=O)C(c2cnccc2Sc2ccc(OCc3cncc(CO)c3)cc2)N1 (stereo not drawn) [PC-39], the IC50 [1] is reported as 100 to 1000 nM.
Work on Cc1cc(COc2ccc(Sc3ccncc3C3NC(=O)NC3=O)c(C)c2)ccn1 (stereo not drawn) [PC-42] yielded an IC50 [1] of 10 to 100 nM.
With Cc1cccc(COc2ccc(S(=O)(=O)c3ccncc3C3NC(=O)NC3=O)cc2)c1 (stereo not drawn) [PC-6] the IC50 [1] was 100 to 1000 nM.
Compound NC(=O)c1cc(COc2ccc(Sc3ccncc3C3NC(=O)NC3=O)cc2)ccn1 (stereo not drawn) [PC-59] has an IC50 [1] of 100 to 1000 nM.
For Cc1cccc(COc2ccc(Sc3cnn(C)c3C3NC(=O)NC3=O)cc2)c1 (stereo not drawn) [OC-5], the IC50 [1] was 10 to 100 nM.
Compound CC(C)Oc1cccc(COc2ccc(Sc3ccsc3C3NC(=O)NC3=O)cc2)c1 (stereo not drawn) [TC3] has an IC50 [1] of 100 to 1000 nM.
